The record followed here is PubChem BioAssay (NCI).

“And” between values parts separate entries of the source, which are not always exact repeats. Equal values may be shown once.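 The compound was tested at five concentrations on cells cultured in 96-well plates, with a 48-hour exposure period. At the GI50, growth is halved. TGI marks complete inhibition of growth.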

One assay concerns ACHN renal. Kind of assay: inhibition of tumour cell growth, NCI panel, 48 h.
`CC(=O)Oc1c(C)c(-c2ccccc2)c(C)c(-c2ccccc2)c1C(=S)c1ccccc1`: the TGI was more than 100 µM.
`COc1ccc(C=O)cc1O[Si](C)(C)C(C)(C)C` displayed a TGI of more than 100 µM.
The same measure, in the same setting: to `CC1(O)C(C)(O)C2(C)O[Te]3(OC12C)OC1(C)C(C)(O)C(C)(O)C1(C)O3` (stereo not given) belongs more than 100 µM; to `COc1cc(NCC(C#N)C#N)ccc1N=Nc1ccc(Cl)cc1`, more than 100 µM; to `CC(=O)c1ccc(NC(=O)/C(CC(=O)c2sc(-c3cccnc3)nc2C)=N/NC(N)=O)cc1`, 56.1 µM.
`Cc1ccc(S(=O)(=O)OC2CC=CC2)cc1` had a TGI of more than 100 µM.
Turning to `C=CC[P@]1(=O)O[C@H](c2ccccc2)[C@H](C)N1C`, the TGI was more than 100 µM.
Still for that read-out and setting: to `NCCCNCCS` belongs more than 100 µM; to `OCC12C=CC(C1)c1ccccc12` (stereo not given), more than 100 µM.
Still for that read-out and setting: to `CCOC1C(Br)Cn2c(=O)c3cc4ccccc4cc3c(=O)n2C1C` (stereo not given) belongs more than 100 µM; to `COc1ccc(NC(=O)CC/C(CC(=O)c2ccco2)=N/NC(=O)C(N)=O)cc1`, more than 100 µM.
Take `O=C1C=CC(=O)C2C1C1(Cl)C(Cl)=C(Cl)C2(Cl)C1(Cl)Cl` (stereo not given): the GI50 is 4.18 µM and the TGI was 18.3 µM.
`C=CC(=O)N1CCC(Oc2cc3c(Nc4ccc(Cl)c(Cl)c4F)ncnc3cc2OC)CC1`: the GI50 was less than 0.001 µM; the TGI is 14.9 µM and > 10 µM.
For `NC(CCCC(N)P(=O)(O)O)P(=O)(O)O` (stereo not given), the TGI is more than 100 µM.
On to `O=C(O)CCCc1ccc2ccc3ccccc3c2c1`, for which the TGI was more than 100 µM.
As to `CC(=O)OC1OC([C@H]2c3cccc(O)c3C(=O)c3c(O)cc(C)cc32)C(O)C(O)C1O` (stereo not given in full), the GI50 was 0.0729 µM and the TGI was 0.437 µM.
Consider `Cc1cc(Cl)ccc1OCC(=O)Nc1nc2c(Cl)cccc2s1`, for which the GI50 is 43.3 µM and the TGI is more than 100 µM.
`CNC(=O)OCc1c(COC(=O)NC)c(-c2ccc(-c3ccccc3)cc2)n(C)c1C` yielded a TGI of 4.27 µM.
As to `COc1cccc2c1C(=N)c1c(O)c3c(c(O)c1C2=O)C[C@@](O)(C(C)=O)C[C@@H]3O[C@H]1C[C@H](N)[C@H](O)[C@H](C)O1`, the GI50 was 0.419 µM and the TGI was 3.1 µM.
The matching figures for `Cc1cn(-c2cc(NC(=O)c3cccc(C#Cc4cccc5[nH]nc(N)c45)c3)cc(C(F)(F)F)c2)cn1`: 3.86 µM and 16 µM.
Regarding `N/N=C\c1c2ccccc2c(=O)n2c1oc1ccccc12`, the GI50 was 16.3 µM and the TGI was 29.9 µM.
With `CC(=O)C1C(c2ccccc2)C2(C)OC(=O)C(C#N)C12C` (stereo not given), the TGI is more than 100 µM.
Molecule `C[C@]12CC=CC(=O)[C@@]1(C)CCC(=O)C2` showed a TGI of more than 100 µM.
As for `CC(=O)Oc1cc2c(cc1OC(C)=O)C1(C)CCC2(C)c2cc(OC(C)=O)c(OC(C)=O)cc21`, the TGI is more than 100 µM.
Still for that read-out and setting: to `CCCC1(CC(=O)O)OCCc2c1[nH]c1ccccc21` (stereo not given) belongs more than 100 µM; to `CN(C)Cc1cc(C(F)(F)F)ccc1C(O)(c1ccccc1)c1ccccc1`, 29.9 µM; to `O=C(NC(=O)c1c(F)cccc1F)Nc1cccc(Oc2ncc(Cl)cn2)c1`, more than 100 µM.
On to `CSC(SC)(C(=O)O)c1cc(-c2c(Cl)cccc2Cl)no1`, for which the TGI was more than 100 µM.

Another assay has as its system A549 NSCLC. Kind of assay: inhibition of tumour cell growth, NCI panel, 48 h.
The molecule `CCC1=CCN(c2cc(C)ccn2)OC1c1ccc(OC)cc1` (stereo not given) returned a TGI of more than 100 µM.
Consider `CC(=O)Oc1c(C)c(-c2ccccc2)c(C)c(-c2ccccc2)c1C(=S)c1ccccc1`, for which the TGI is more than 100 µM.
`COc1ccc(C=O)cc1O[Si](C)(C)C(C)(C)C` had a TGI of more than 100 µM.
`CC1(O)C(C)(O)C2(C)O[Te]3(OC12C)OC1(C)C(C)(O)C(C)(O)C1(C)O3` (stereo not given): the TGI was 79 µM.
For the molecule `COc1cc(NCC(C#N)C#N)ccc1N=Nc1ccc(Cl)cc1`, the TGI was more than 100 µM.
For the molecule `CC(=O)c1ccc(NC(=O)/C(CC(=O)c2sc(-c3cccnc3)nc2C)=N/NC(N)=O)cc1`, the TGI is 71.2 µM.
On to `Cc1ccc(S(=O)(=O)OC2CC=CC2)cc1`, for which the TGI is more than 100 µM.
Regarding `C=CC[P@]1(=O)O[C@H](c2ccccc2)[C@H](C)N1C`, the TGI was more than 100 µM.
Take `NCCCNCCS`: the TGI is more than 100 µM.
Turning to `OCC12C=CC(C1)c1ccccc12` (stereo not given), the TGI was more than 100 µM.
Take `CCOC1C(Br)Cn2c(=O)c3cc4ccccc4cc3c(=O)n2C1C` (stereo not given): the TGI was more than 100 µM.
On to `COc1ccc(NC(=O)CC/C(CC(=O)c2ccco2)=N/NC(=O)C(N)=O)cc1`, for which the TGI was more than 100 µM.
For the molecule `O=C1C=CC(=O)C2C1C1(Cl)C(Cl)=C(Cl)C2(Cl)C1(Cl)Cl` (stereo not given), the GI50 was 5.5 µM and the TGI is 26.5 µM.
Turning to `C=CC(=O)N1CCC(Oc2cc3c(Nc4ccc(Cl)c(Cl)c4F)ncnc3cc2OC)CC1`, the GI50 was 3.12 µM and 1.6 µM; the TGI is 19.9 µM and > 10 µM.
Turning to `NC(CCCC(N)P(=O)(O)O)P(=O)(O)O` (stereo not given), the TGI was more than 100 µM.
Take `O=C(O)CCCc1ccc2ccc3ccccc3c2c1`: the TGI was more than 100 µM.
With `CC(=O)OC1OC([C@H]2c3cccc(O)c3C(=O)c3c(O)cc(C)cc32)C(O)C(O)C1O` (stereo not given in full), the GI50 is 0.0479 µM and the TGI stood at 15.1 µM.
As to `Cc1cc(Cl)ccc1OCC(=O)Nc1nc2c(Cl)cccc2s1`, the GI50 was 16.7 µM and the TGI came out at 42 µM.
On to `CNC(=O)OCc1c(COC(=O)NC)c(-c2ccc(-c3ccccc3)cc2)n(C)c1C`, for which the TGI was 14.1 µM.
As for `COc1cccc2c1C(=N)c1c(O)c3c(c(O)c1C2=O)C[C@@](O)(C(C)=O)C[C@@H]3O[C@H]1C[C@H](N)[C@H](O)[C@H](C)O1`, the GI50 is 0.155 µM and the TGI was determined as 1.58 µM.
For `Cc1cn(-c2cc(NC(=O)c3cccc(C#Cc4cccc5[nH]nc(N)c45)c3)cc(C(F)(F)F)c2)cn1`, the GI50 is 10.4 µM and the TGI is 35.2 µM.
As for `N/N=C\c1c2ccccc2c(=O)n2c1oc1ccccc12`, the GI50 was 11.2 µM and the TGI turned out to be 41.7 µM.
As to `CC(=O)C1C(c2ccccc2)C2(C)OC(=O)C(C#N)C12C` (stereo not given), the TGI is more than 100 µM.
